These results are taken from patent US20080200448A1, “New Pyridine Analogues VIII 518” (ASTRAZENECA AB, priority 2007, published 2008).

Molecules are shown by their SMILES. Like-named read-outs stand apart in the source and are kept apart here.

The test concerns the target T1, P2Y12 receptor (Homo sapiens, UniProt Q9H244).
T1 construct: expressed in transfected cells; host or cells: CHO cells (membrane preparation)
Put plainly: Functional inhibition of 2-Me-S-ADP induced P2Y12 signalling (35S-GTPγS binding, cell membranes). The class given is biochemical. How it is done: Functional inhibition of- the P2Y12 receptor can be measured by in vitro assays using cell membranes from P2Y12 transfected CHO-cells, the methodology is indicated below.
Functional inhibition of 2-Me-S-ADP induced P2Y12 signalling: 5 μg of membranes were diluted in 200 μl of 200 mM NaCl, 1 mM MgCl2, 50 mM HEPES (pH 7.4), 0.01% BSA, 30 μg/ml saponin and 10 μM GDP. To this was added an EC80 concentration of agonist (2-methyl-thio-adenosine diphosphate), the required concentration of test compound and 0.1 μCi ^35S-GTPγS. The reaction was allowed to proceed at 30° C. for 45 min. Samples were then transferred on to GF/B filters using a cell harvester and washed with wash buffer (50 mM Tris (pH 7.4), 5 mM MgCl2, 50 mM NaCl). Filters were then covered with scintilant and counted for the amount of ^35S-GTPγS retained by the filter. Maximum activity was that determined in the presence of the agonist and minimum activity in the absence of the agonist following subtraction of the value determined for non-specific activity. The effect of compounds at various concentrations was plotted according to the equation
y=A+((B−A)/(1+((C/x)̂D)))
and IC50 estimated where A is the bottom plateau of the curve i.e. the final minimum y value B is the top of the plateau of the curve i.e. the final maximum y value C is the x value at the middle of the curve. This represents the log EC50 value when A+B=100 D is the slope factor. x is the original known x values. Y is the original known y values.
Background: Binding of GTPγS marks nucleotide exchange on a G protein.

Where [1] appears, read: 35S-GTPγS assay, membranes, EC80 concentration of 2-methyl-thio-adenosine diphosphate, 30° C. for 45 min, read-out: GTPγS (IC50 μM).
[2] abbreviates: functional inhibition of 2-Me-S-ADP induced P2Y12 signalling, membranes from P2Y12 transfected CHO-cells, EC80 concentration of agonist, read-out: IC50.

T1 sequence (Q9H244 whole entry): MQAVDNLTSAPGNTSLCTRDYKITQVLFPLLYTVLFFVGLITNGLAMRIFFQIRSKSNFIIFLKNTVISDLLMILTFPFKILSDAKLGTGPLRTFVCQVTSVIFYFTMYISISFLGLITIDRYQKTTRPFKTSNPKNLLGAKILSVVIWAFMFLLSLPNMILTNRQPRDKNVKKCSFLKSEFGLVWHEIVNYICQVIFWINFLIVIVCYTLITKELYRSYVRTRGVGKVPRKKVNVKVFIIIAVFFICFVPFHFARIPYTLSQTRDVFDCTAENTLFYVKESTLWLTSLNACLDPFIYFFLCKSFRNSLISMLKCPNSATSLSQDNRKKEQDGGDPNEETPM

Broadly, the IC50 is the concentration that inhibits the measured activity by half. In the case of `CCOC(=O)c1cc(C#N)c(N2CCC(C(=O)N(CC(=O)O)S(=O)(=O)Cc3ccccc3)CC2)nc1C` [Example 1, N-(benzylsulfonyl)-N-({1-[3-cyano-5-(ethoxycarbonyl)-6-methylpyridin-2-yl]piperidin-4-yl}carbonyl)glycine], under setting [1], the IC50 is 0.093 µM.

With `CCOC(=O)c1cc(C#N)c(N2CCC(C(=O)NS(=O)(=O)Cc3ccccc3)CC2)nc1OC(C)=O` [Example 2, Ethyl 2-acetoxy-6-{4-[(benzylsulfonyl)carbamoyl]piperidin-1-yl}-5-cyanonicotinate], under setting [1], the IC50 is 0.024 µM.

Consider `CCOC(=O)c1cc(C#N)c(N2CCC(C(=O)NS(=O)(=O)Cc3ccccc3)CC2)nc1CN1CCCC1` [Example 3, Ethyl 6-{4-[(benzylsulfonyl)carbamoyl]piperidin-1-yl}-5-cyano-2-(pyrrolidin-1-ylmethyl)nicotinate], for which the concentration for half-maximal inhibition (IC50) under setting [1] is 0.545 µM.

Turning to `CCOC(=O)c1cc(C#N)c(N2CCC(C(=O)NS(=O)(=O)Cc3ccccc3)CC2)nc1CN(C)C` [Example 4, Ethyl 6-{4-[(benzylsulfonyl)carbamoyl]piperidin-1-yl}-5-cyano-2-[(dimethylamino)methyl]nicotinate], the IC50 is, setting by setting: under setting [1], 0.282 µM; under setting [2], 0.28 µM.

`CCOC(=O)c1cc(C#N)c(N2CCC(C(=O)NS(=O)(=O)Cc3ccccc3)CC2)nc1COC(C)=O` [Example 5, Ethyl 2-(acetoxymethyl)-6-{4-[(benzylsulfonyl)carbamoyl]piperidin-1-yl}-5-cyanonicotinate]: the IC50 under setting [1] worked out at 0.044 µM.

In the case of `CCOC(=O)c1cc(C#N)c(N2CC(C(=O)NS(=O)(=O)Cc3ccccc3)C2)nc1CN(C)C` [Example 6, Ethyl 6-{3-[(benzylsulfonyl)carbamoyl]azetidin-1-yl}-5-cyano-2-[(dimethylamino)methyl]nicotinate], the IC50 under setting [1] was found to be 1.07 µM.

Regarding `CCOC(=O)c1cc(C#N)c(N2CC(C(=O)NS(=O)(=O)Cc3ccccc3)C2)nc1COC(C)=O` [Example 7, Ethyl 2-(acetoxymethyl)-6-{3-[(benzylsulfonyl)carbamoyl]azetidin-1-yl}-5-cyanonicotinate], the IC50 under setting [1] was determined as 0.076 µM.

With `CCOC(=O)COc1nc(N2CCC(C(=O)NS(=O)(=O)Cc3ccccc3)CC2)c(C#N)cc1C(=O)OCC` [Example 8, Ethyl 6-{4-[(benzylsulfonyl)carbamoyl]piperidin-1-yl}-5-cyano-2-(2-ethoxy-2-oxoethoxy)nicotinate], the IC50 under setting [1] worked out at 0.039 µM.

Regarding `CCOC(=O)c1cc(C#N)c(N2CC(C(=O)NS(=O)(=O)Cc3ccccc3)C2)nc1CN=[N+]=[N-]` [Example 9, Ethyl 2-(azidomethyl)-6-{3-[(benzylsulfonyl)carbamoyl]azetidin-1-yl}-5-cyanonicotinate], the IC50 under setting [1] was 0.069 µM.

On to `CCOC(=O)c1cc(C#N)c(N2CC(C(=O)NS(=O)(=O)Cc3ccccc3)C2)nc1CS(C)(=O)=O` [Example 10, Ethyl 6-{3-[(benzylsulfonyl)carbamoyl]azetidin-1-yl}-5-cyano-2-[(methylsulfonyl)methyl]nicotinate], for which, under setting [1], the IC50 was determined as 0.243 µM.

On to `CCOC(=O)c1cc(C#N)c(N2CCC(C(=O)NS(=O)(=O)Cc3ccccc3)CC2)nc1CN=[N+]=[N-]` [Example 11, Ethyl 2-(azidomethyl)-6-{4-[(benzylsulfonyl)carbamoyl]piperidin-1-yl}-5-cyanonicotinate], for which the IC50 under setting [1] came out at 0.025 µM.

Turning to `CCOC(=O)c1cc(C#N)c(N2CCC(C(=O)NS(=O)(=O)Cc3ccccc3)CC2)nc1CS(C)(=O)=O` [Example 12, Ethyl 6-{4-[(benzylsulfonyl)carbamoyl]piperidin-1-yl}-5-cyano-2-[(methylsulfonyl)methyl]nicotinate], the IC50 runs as follows: under setting [1], 0.129 µM; under setting [2], 0.13 µM.

With `CCOC(=O)c1cc(C#N)c(N2CC(C(=O)NS(=O)(=O)Cc3ccccc3)C2)nc1CN1C(=O)CCC1=O` [Example 13, Ethyl 6-{3-[(benzylsulfonyl)carbamoyl]azetidin-1-yl}-5-cyano-2-[(2,5-dioxopyrrolidin-1-yl)methyl]nicotinate], the IC50 under setting [1] was determined as 0.064 µM.

`CCOC(=O)c1cc(C#N)c(N2CC(C(=O)NS(=O)(=O)Cc3ccccc3)C2)nc1COC(=O)CO` [Example 14, Ethyl 6-{3-[(benzylsulfonyl)carbamoyl]azetidin-1-yl}-5-cyano-2-[(glycoloyloxy)methyl]nicotinate]: under setting [1], the IC50 was 0.044 µM.

On to `CCOC(=O)c1cc(C#N)c(N2CCC(C(=O)NS(=O)(=O)Cc3ccccc3)CC2)nc1CN1C(=O)CCC1=O` [Example 15, Ethyl 6-{4-[(benzylsulfonyl)carbamoyl]piperidin-1-yl}-5-cyano-2-[(2,5-dioxopyrrolidin-1-yl)methyl]nicotinate], for which the IC50 under setting [1] was found to be 0.017 µM.

As for `CCOC(=O)c1cc(C#N)c(N2CCC(C(=O)NS(=O)(=O)Cc3ccccc3)CC2)nc1COC(=O)CO` [Example 16, Ethyl 6-{4-[(benzylsulfonyl)carbamoyl]piperidin-1-yl}-5-cyano-2-[(glycoloyloxy)methyl]nicotinate], the IC50 under setting [1] is 0.015 µM.

Take `CCOC(=O)c1cc(C#N)c(N2CCC(C(=O)NS(=O)(=O)Cc3ccccc3)CC2)nc1OCCC#N` [Example 17, Ethyl 6-{4-[(benzylsulfonyl)carbamoyl]piperidin-1-yl}-5-cyano-2-(2-cyanoethoxy)nicotinate]: the IC50 under setting [1] was found to be 0.027 µM.

`CCOC(=O)c1cc(C#N)c(N2CCC(C(=O)NS(=O)(=O)Cc3ccccc3)CC2)nc1OCCO` [Example 18, Ethyl 6-{4-[(benzylsulfonyl)carbamoyl]piperidin-1-yl}-5-cyano-2-(2-hydroxyethoxy)nicotinate]: the half-inhibitory concentration (IC50) under setting [1] came out at 0.031 µM.

`CCOC(=O)c1cc(C#N)c(N2CCC(C(=O)NS(=O)(=O)Cc3ccccc3)CC2)nc1SCCO` [Example 19, Ethyl 6-{4-[(benzylsulfonyl)carbamoyl]piperidin-1-yl}-5-cyano-2-[(2-hydroxyethyl)thio]nicotinate]: under setting [1], the IC50 stood at 0.016 µM.

Regarding `CCOC(=O)c1cc(C#N)c(N2CCC(C(=O)NS(=O)(=O)Cc3ccccc3)CC2)nc1OCCNC(C)=O` [Example 20, Ethyl 2-(2-acetamidoethoxy)-6-{4-[(benzylsulfonyl)carbamoyl]piperidin-1-yl}-5-cyanonicotinate], the IC50 under setting [1] worked out at 0.038 µM.

Consider `CCOC(=O)c1cc(C#N)c(N2CCC(C(=O)NS(=O)(=O)Cc3ccccc3)CC2)nc1SCCNC(C)=O` [Example 21, Ethyl 2-[(2-acetamidoethyl)thio]-6-{4-[(benzylsulfonyl)carbamoyl]piperidin-1-yl}-5-cyanonicotinate], for which the IC50 under setting [1] came out at 0.01 µM.

With `CCOC(=O)c1cc(C#N)c(N2CCC(C(=O)NS(=O)(=O)Cc3ccccc3)CC2)nc1OCC(N)=O` [Example 22, Ethyl 2-(2-amino-2-oxoethoxy)-6-{4-[(benzylsulfonyl)carbamoyl]piperidin-1-yl}-5-cyanonicotinate], the IC50 under setting [1] is 0.072 µM.

In the case of `CCOC(=O)c1cc(C#N)c(N2CCC(C(=O)NS(=O)(=O)Cc3ccccc3)CC2)nc1OCC1CCO1` (stereo not shown) [Example 23, Ethyl 6-{4-[(benzylsulfonyl)carbamoyl]piperidin-1-yl}-5-cyano-2-(oxetan-2-ylmethoxy)nicotinate], the 50% inhibitory concentration (IC50) under setting [1] worked out at 0.048 µM.

As for `CCOC(=O)c1cc(C#N)c(N2CCC(C(=O)NS(=O)(=O)Cc3ccccc3)CC2)nc1OCC(=O)O` [Example 24, {[6-{4-[(Benzylsulfonyl)carbamoyl]piperidin-1-yl}-5-cyano-3-(ethoxycarbonyl)pyridin-2-yl]oxy}acetic acid], under setting [1], the IC50 was found to be 0.025 µM.

On to `CCOC(=O)c1cc(C#N)c(N2CCC(C(=O)NS(=O)(=O)Cc3ccccc3)CC2)nc1OCC(=O)NC` [Example 25, Ethyl 6-{4-[(benzylsulfonyl)carbamoyl]piperidin-1-yl}-5-cyano-2-[2-(methylamino)-2-oxoethoxy]nicotinate], for which, under setting [1], the half-inhibitory concentration (IC50) stood at 0.075 µM.

Take `CCOC(=O)c1cc(C#N)c(N2CCC(C(=O)NS(=O)(=O)Cc3ccccc3)CC2)nc1SCC(=O)O` [Example 26, {[6-{4-[(Benzylsulfonyl)carbamoyl]piperidin-1-yl}-5-cyano-3-(ethoxycarbonyl)pyridin-2-yl]thio}acetic acid]: the IC50 under setting [1] stood at 0.0081 µM.

Regarding `CCOC(=O)c1cc(C#N)c(N2CCC(C(=O)NS(=O)(=O)Cc3ccccc3)CC2)nc1CSCC` [Example 27, Ethyl 6-{4-[(benzylsulfonyl)carbamoyl]piperidin-1-yl}-5-cyano-2-[(ethylthio)methyl]nicotinate], under setting [1], the IC50 stood at 0.057 µM.

As to `CCOC(=O)c1cc(C#N)c(N2CCC(C(=O)NS(=O)(=O)Cc3ccccc3)CC2)nc1CSCCO` [Example 28, Ethyl 6-{4-[(benzylsulfonyl)carbamoyl]piperidin-1-yl}-5-cyano-2-{[(2-hydroxyethyl)thio]methyl}nicotinate], the IC50 under setting [1] amounted to 0.037 µM.

For `CCOC(=O)c1cc(C#N)c(N2CCC(C(=O)NS(=O)(=O)Cc3ccccc3)CC2)nc1CSCCNC(C)=O` [Example 29, Ethyl 2-{[(2-acetamidoethyl)thio]methyl}-6-{4-[(benzylsulfonyl)carbamoyl]piperidin-1-yl}-5-cyanonicotinate], the IC50 under setting [1] came to 0.033 µM.
